Source: article PMC8835733, “PaOctβ2R: Identification and Functional Characterization of an Octopamine Receptor Activating Adenylyl Cyclase Activity in the American Cockroach Periplaneta americana” (International Journal of Molecular Sciences, 2022)
Several values for one entry are separate records, joined by “and”; a condition that tells them apart may be missing. Equal values may be shown once. Read-outs that look alike come from different tables or passages of the source.

Columns and labels:
PaOctβ2R-HA [1] = assay: Antagonist inhibition of octopamine-activated PaOctβ2R-HA (cAMP via CNG channel / Fluo-4); format: cell-based, Periplaneta americana; conditions: 1 × 10^−9 M octopamine; for Maximal Inhibition of octopamine-activated PaOctβ2R-HA activity: 1 × 10^−4 M IBMX
Protocol: (§1) The reduction of cellular cAMP production, monitored as a decrease in Fluo-4 fluorescence (see Section 4.9), was quantified and normalized to the value obtained without adding antagonists (=100%). Normalized data were used to construct inhibitor concentration-response curves.
(§2) Ligand concentrations that led to half-maximal inhibition of PaOctβ2R-HA (IC50) were determined from the concentration-response curves.
(§3) A stably transfected cell line was established to examine PaOctβ2R-HA receptor activity by Ca^2+ imaging. Control measurements were performed in the parental (flpTM) cell line. Changes in [cAMP]i were registered indirectly via co-expressed CNG channels that are opened by cAMP and cause an influx of extracellular Ca^2+ [18, 26, 91]. Changes in [Ca^2+]i were monitored with the Ca^2+-sensitive fluorescent dye Fluo-4. Cells were grown in 96-well dishes to a density of approximately 2 × 10^4 cells per well and were loaded at room temperature with Fluo-4 AM as described previously. After 90 min, the loading solution was substituted for dye-free extracellular solution (ECS; 120 mM NaCl, 5 mM KCl, 2 mM MgCl2, 2 mM CaCl2, 10 mM HEPES, and 10 mM glucose, pH 7.4 (NaOH)) containing 100 µM 3-isobutyl-1-methylxanthine (IBMX; Sigma-Aldrich/Merck, Darmstadt, Germany) as an inhibitor of cell-endogenous phosphodiesterases. The plate was transferred into a fluorescence reader (FLUOstar Omega, BMG Labtech, Ortenberg, Germany) to monitor Fluo-4 fluorescence. The excitation wavelength was 485 nm. Fluorescence emission was detected at 520 nm. Concentration series of various biogenic amines and synthetic receptor ligands were added once Fluo-4 fluorescence had reached a stable value in each well. The changes in Fluo-4 fluorescence were recorded automatically. Concentration-response curves were established from at least three independent experiments. Data points were derived from four-fold or eightfold determination.

PaOctβ2R-HA [2] = assay: Antagonist inhibition of tyramine-activated PaOctβ2R-HA (cAMP via CNG channel / Fluo-4); format: cell-based, Periplaneta americana; conditions: 1 × 10^−7 M tyramine; for Maximal Inhibition of tyramine-activated PaOctβ2R-HA activity: 1 × 10^−4 M IBMX
Protocol: as §1, §2, §3

PaOctβ2R-HA [3] = assay: Agonist-evoked cAMP production in PaOctβ2R-HA-expressing flpTM cells (CNG channel / Fluo-4 Ca2+ imaging); format: cell-based, Periplaneta americana; conditions: for increase in [cAMP]i in PaOctβ2R-HA-expressing cells: biogenic amines at 0.1 and 1 µM; for increase in [cAMP]i in PaOctβ2R-HA-expressing cells / concentration at which the concentration-response curve saturated: 100 µM IBMX; for concentration at which the concentration-response curve saturated: flpTM + PaOctβ2R-HA cells
Excerpt: (§4) These insect receptors are preferentially activated by octopamine and to a certain extent by tyramine as well. In a first series of experiments, we thus examined the ability of different biogenic amines, i.e., octopamine, tyramine, dopamine, histamine, and serotonin, to evoke PaOctβ2R-HA-dependent cAMP production in receptor-expressing as well as in the parental (flpTM) cell line. Increasing [cAMP]i cause opening of the CNG channels and influx of extracellular Ca^2+ which was detected by the Ca^2+-sensitive dye FLUO-4.
(§5) In a next step, concentration series of octopamine and tyramine ranging from 10^−12 M to 10^−7 M for octopamine and 10^−11 M to 10^−6 M for tyramine were applied to the cell lines. The fluorescence signals were normalized to values obtained in flpTM + PaOctβ2R-HA cells with the highest ligand concentration (=100%) and used to calculate concentration response curves for the receptor (Figure 6; Table 1).
(§6) Cells were transfected with 10 µg of the pcPaOctβ2R-HA construct by a modified calcium phosphate method following a previously established protocol. Transfected cells were selected in the presence of the antibiotics G418 (1 mg/mL) and hygromycin (100 µg/mL).
as §3

(UniProt Z9G3U5DLY1) [4] = assay: Antagonist inhibition of octopamine-activated PaOctβ2R-HA (cAMP via CNG channel / Fluo-4); format: cell-based, Periplaneta americana; conditions: 1 × 10^−9 M octopamine, 1 × 10^−4 M IBMX
Protocol: as §1, §2, §3

(UniProt Z9G3U5DLY1) [5] = assay: Antagonist inhibition of tyramine-activated PaOctβ2R-HA (cAMP via CNG channel / Fluo-4); format: cell-based, Periplaneta americana; conditions: 1 × 10^−7 M tyramine, 1 × 10^−4 M IBMX
Protocol: as §1, §2, §3

(UniProt Z9G3U5DLY1) [6] = assay: Agonist-evoked cAMP production in PaOctβ2R-HA-expressing flpTM cells (CNG channel / Fluo-4 Ca2+ imaging); format: cell-based, Periplaneta americana; conditions: 100 µM IBMX
Excerpt: as §4, §5, §6, §3

flpTM cells = assay: Control measurements in parental (non-transfected) flpTM cells (cAMP via CNG channel / Fluo-4); format: cell-based, human; conditions: concentration series of octopamine or tyramine; 100 µM IBMX
Excerpt: as §4, with “FLUO-4. No stimulation of adenylyl cyclase activity was recorded in flpTM cells when incubated with 0.1 or 1 µM concentrations of biogenic amines (Figure 5A). […]” for “FLUO-4.”
A stably transfected cell line was established to examine PaOctβ2R-HA receptor activity by Ca^2+ imaging. […] Changes in [Ca^2+]i were monitored with the Ca^2+-sensitive fluorescent dye Fluo-4. […] The plate was transferred into a fluorescence reader (FLUOstar Omega, BMG Labtech, Ortenberg, Germany) to monitor Fluo-4 fluorescence. […] Fluorescence emission was detected at 520 nm. Concentration series of various biogenic amines and synthetic receptor ligands were added once Fluo-4 fluorescence had reached a stable value in each well. The changes in Fluo-4 fluorescence were recorded automatically. […]

[7] = read-out: IC50, half-maximal inhibition of octopamine-activated PaOctβ2R-HA
[8] = read-out: pIC50 ± SD, octopamine-activated PaOctβ2R-HA (converted)
[9] = read-out: IC50, half-maximal inhibition of tyramine-activated PaOctβ2R-HA
[10] = read-out: pIC50 ± SD, tyramine-activated PaOctβ2R-HA (converted)
[11] = mean of n = 5 experiments, flpTM + PaOctβ2R-HA cells, read-out: EC50, mean value for half-maximal stimulation of PaOctβ2R-HA
[12] = mean of n = 5 experiments, flpTM + PaOctβ2R-HA cells, read-out: pEC50 ± SD, half-maximal stimulation of PaOctβ2R-HA (converted)
[13] = single representative eight-fold determination, read-out: EC50, half maximal activation of PaOctβ2R-HA (representative experiment, Figure 6)

COc1ccc2[nH]cc(CCN)c2c1 [5-MT, 5-methoxytryptamine]
effect on octopamine-stimulated PaOctβ2R-HA activity (in words) (PaOctβ2R-HA [1]): did not impair | effect on tyramine-stimulated PaOctβ2R-HA activity (in words) (PaOctβ2R-HA [2]): did not impair

CCCN(CCC)C1CCc2cccc(O)c2C1 (centres unmarked) [8-OH-DPAT, 8-hydroxy-2-(dipropylamino)tetralin]
effect on octopamine-stimulated PaOctβ2R-HA activity (in words) (PaOctβ2R-HA [1]): did not impair | effect on tyramine-stimulated PaOctβ2R-HA activity (in words) (PaOctβ2R-HA [2]): did not impair

NCCc1ccc(O)c(O)c1 [dopamine]
increase in [cAMP]i in PaOctβ2R-HA-expressing cells (PaOctβ2R-HA [3]): Neither dopamine, histamine nor serotonin caused an increase in [cAMP]i

NC1=NCC2c3ccccc3Cc3ccccc3N12 (centres unmarked) [epinastine]
IC50 ((UniProt Z9G3U5DLY1) [4]; [7]): ~12 nM and 12 nM | IC50 ((UniProt Z9G3U5DLY1) [4]; [8]): 11.4 nM | Maximal Inhibition of octopamine-activated PaOctβ2R-HA activity (PaOctβ2R-HA [1]): 100% | IC50 ((UniProt Z9G3U5DLY1) [5]; [9]): ~13 nM and 13 nM | IC50 ((UniProt Z9G3U5DLY1) [5]; [10]): 11.2 nM | Maximal Inhibition of tyramine-activated PaOctβ2R-HA activity (PaOctβ2R-HA [2]): 100%

NCCc1c[nH]cn1 [histamine]
increase in [cAMP]i in PaOctβ2R-HA-expressing cells (PaOctβ2R-HA [3]): Neither dopamine, histamine nor serotonin caused an increase in [cAMP]i

O=C(c1ccc(F)cc1)C1CCN(CCn2c(=O)[nH]c3ccccc3c2=O)CC1 [ketanserin]
IC50 ((UniProt Z9G3U5DLY1) [4]; [7]): 5120 nM | IC50 ((UniProt Z9G3U5DLY1) [4]; [8]): 5120 nM | Maximal Inhibition of octopamine-activated PaOctβ2R-HA activity (PaOctβ2R-HA [1]): 80% | Maximal Inhibition of octopamine-activated PaOctβ2R-HA activity (PaOctβ2R-HA [1]; listed as Ketanserin): approximately 80% | IC50 ((UniProt Z9G3U5DLY1) [5]; [9]): 1680 nM | IC50 ((UniProt Z9G3U5DLY1) [5]; [10]): 1710 nM | Maximal Inhibition of tyramine-activated PaOctβ2R-HA activity (PaOctβ2R-HA [2]): 50%

NCC(O)c1ccc(O)cc1 (centres unmarked) [octopamine]
EC50 ((UniProt Z9G3U5DLY1) [6]; [11]): 0.467 nM | EC50 ((UniProt Z9G3U5DLY1) [6]; [12]): 0.447 nM | EC50 ((UniProt Z9G3U5DLY1) [6]; [13]): 0.297 nM | increase in [cAMP]i in PaOctβ2R-HA-expressing cells (PaOctβ2R-HA [3]): showed increasing [cAMP]i | concentration at which the concentration-response curve saturated (PaOctβ2R-HA [3]): ≥ 10^−9 M | preference (selectivity) of PaOctβ2R-HA for octopamine over tyramine (PaOctβ2R-HA [3]; octopamine vs tyramine potency): 100 fold and ~ 100 fold | change in the fluorescence signal in non-transfected flpTM cells (flpTM cells): no change in the fluorescence signal was observed

Cc1ccc(N(CC2=NCCN2)c2cccc(O)c2)cc1 [phentolamine]
IC50 ((UniProt Z9G3U5DLY1) [4]; [7]): 257 nM | IC50 ((UniProt Z9G3U5DLY1) [4]; [8]): 247 nM | Maximal Inhibition of octopamine-activated PaOctβ2R-HA activity (PaOctβ2R-HA [1]): 100% | IC50 ((UniProt Z9G3U5DLY1) [5]; [9]): 256 nM | IC50 ((UniProt Z9G3U5DLY1) [5]; [10]): 255 nM | Maximal Inhibition of tyramine-activated PaOctβ2R-HA activity (PaOctβ2R-HA [2]): 100%

NCCc1c[nH]c2ccc(O)cc12 [serotonin, 5-hydroxytryptamine]
increase in [cAMP]i in PaOctβ2R-HA-expressing cells (PaOctβ2R-HA [3]): Neither dopamine, histamine nor serotonin caused an increase in [cAMP]i

NCCc1ccc(O)cc1 [tyramine]
EC50 ((UniProt Z9G3U5DLY1) [6]; [11]): 43 nM | EC50 ((UniProt Z9G3U5DLY1) [6]; [12]): 40.7 nM | EC50 ((UniProt Z9G3U5DLY1) [6]; [13]): 36.8 nM | increase in [cAMP]i in PaOctβ2R-HA-expressing cells (PaOctβ2R-HA [3]): showed increasing [cAMP]i | concentration at which the concentration-response curve saturated (PaOctβ2R-HA [3]): ≥ 10^−7 M | change in the fluorescence signal in non-transfected flpTM cells (flpTM cells): no change in the fluorescence signal was observed

COC(=O)[C@@H]1[C@H]2C[C@H]3c4[nH]c5ccccc5c4CCN3C[C@@H]2CC[C@@H]1O [yohimbine]
effect on octopamine-stimulated PaOctβ2R-HA activity (in words) (PaOctβ2R-HA [1]): did not impair | effect on tyramine-stimulated PaOctβ2R-HA activity (in words) (PaOctβ2R-HA [2]): did not impair
